Measurements from US9024022B2, “Substrates of O6-alkylguanine-DNA alkyltransferase and mutants thereof” (Cis Bio International, priority 2008, dated 2015).

Target: T1, N-AGT enzyme (AGT-mGluR2 fusion protein) (Homo sapiens, UniProt P16455)
T1 construct: fused on or other part: type 2 metabotropic glutamate receptor (mGluR2)
Experiment: Enzymatic reactivity test in a cell model, N-AGT mutant
Assay type: cell-based
Details: living cells, N-AGT mutant; labeling 1 h at 37° C.; read-out: half saturation concentration of the enzyme
Experimental: This procedure makes it possible to test the reactivity of substrates according to the invention with an AGT expressed by COS 7 cells in the form of a fusion protein with the type 2 glutamate transmembrane receptor (mGluR2).
Various mutants of AGT were analyzed in this study: SNAP-tag-ST26 or CLIP-tag from Covalys or the N-AGT mutant described by Gronemeyer et al. (Protein Engineering, Design & Selection, Vol. 19, No. 7, pp. 309-316, 2006).
The transient transfection of the cells is carried out by electroporation using a Biorad electroporator: 10 million cells are transfected by 1 μg SNAP-tag-mGluR2+3 μg pcdna3.1 in a final volume of 300 μl. The electroporation parameters are: 280 V & 1000 μF. […]
The labeling of the AGT-mGluR2 fusion protein takes place in 100 μl of complete medium with increasing concentrations of BG-fluorophore or BG-L1-A-L2-fluorophore according to the invention for 1 h at 37° C. Before the reading, 4 washing operations are carried out with 100 μl of Tris-Krebs.
For the substrates bearing fluorophores ATTO647 (example 2), DY647 (examples 1 and 5) and fluorescein-5-EX (example 3), the reading is carried out in 100 μl of Tris-Krebs in direct fluorescence at 682 nm on a Rubystar machine, and at 520 nm for those bearing fluorescein-5-EX (example 3). […]

T1 sequence (P16455 whole entry, looked up, the tested form may be a part): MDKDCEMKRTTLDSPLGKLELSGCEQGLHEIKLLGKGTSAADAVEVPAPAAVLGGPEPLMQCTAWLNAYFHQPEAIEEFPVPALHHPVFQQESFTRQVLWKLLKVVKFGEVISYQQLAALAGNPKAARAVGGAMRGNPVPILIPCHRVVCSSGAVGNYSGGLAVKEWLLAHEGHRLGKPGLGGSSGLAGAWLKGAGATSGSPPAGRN

Which EC50 does the source give for “Tb(KR)-methylbenzamide-BG [BG-methylbenzamide-Tb(KR)]” here?
The EC50 was 6.4 nM.
